Laboratory results taken from patent publication US6156700A, “3-(1,2-Benzisothiazol- and isoxazol-5-yl)-2,4(1H,3H)-pyrimidinedione or thione and 3-(1,2-benzisothiazol- and isoxazol-5-yl)-4(3H)-pyrimidinone or thione herbicidal agents” (American Cyanmid Company, priority 1998, dated 2000).

Tests used:
[1] = system: Velvetleaf, Abutilon theophrasti; test: Postemergence herbicidal evaluation, ABUTH; type: in vivo, Medic.
How it was run: (§1)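 Test compounds, formulated in equal parts acetone and water plus 0.5% TWEEN 20, are applied by nozzle (40 psi) to seedlings about two weeks old at roughly 0.0157–0.500 kg/ha. Injury is scored 0–9 visually 4–5 weeks later, with multiple tests averaged.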

[2] = system: Lambsquarters, Common, Chenopodium album; test: Preemergence herbicidal evaluation, CHEAL; type: in vivo, L.; conditions: 0.2500 kg/ha
How it was run: (§2)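 Seeds mixed with potting soil were planted on about one inch of soil in cups, then sprayed with test compound in aqueous acetone at about 0.0156 to 0.500 kg per hectare. Plants were grown under greenhouse conditions and rated visually 4–5 weeks after treatment on a 0–9 scale against a control.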

Galium, Galium aparine [3] = test: Postemergence herbicidal evaluation, GALAP; type: in vivo
How it was run: as §1

[4] = system: Ragweed, Common, Ambrosia artemisifolia; test: Preemergence herbicidal evaluation, AMBEL; type: in vivo, L.; conditions: 0.2500 kg/ha
How it was run: as §2

Soybean, Glycine max = test: Postemergence herbicidal evaluation, GLXMA; type: in vivo, (L.) Merr.; conditions: 0.2500 kg/ha
Procedure: In the tests, seedling plants are grown in jiffy flats for about two weeks. The test compounds are dispersed in 50/50 acetone/water mixtures containing 0.5% TWEEN®20, a polyoxyethylene sorbitan monolaurate surfactant of Atlas Chemical Industries, in sufficient quantities to provide the equivalent of about 0.0157 kg to 0.500 kg per hectare of active compound when applied to the plants through a spray nozzle operating at 40 psi for a predetermined time. After spraying, the plants are placed on greenhouse benches and are cared for in accordance with conventional greenhouse procedures. From four to five weeks after treatment, the seedling plants are examined and rated according to the rating system set forth below. Where more than one test is involved for a given compound, the data are averaged.
Results of herbicide evaluation are expressed on a rating scale (0-9). The scale is based upon a visual observation of plant stand, vigor, malformation, size, chlorosis and overall plant appearance as compared with a control.

[5] = system: Morningglory, Ivyleaf, Ipomoea hederacea; test: Preemergence herbicidal evaluation, IPOHE; type: in vivo, (L.) Jacq.; conditions: 0.2500 kg/ha
How it was run: as §2

[6] = system: Morningglory, Ivyleaf, Ipomoea hederacea; test: Postemergence herbicidal evaluation, IPOHE; type: in vivo, (L.) Jacq.; conditions: 0.0630 kg/ha
How it was run: as §1

[7] = system: Soybean, Williams, Glycine max; test: Postemergence herbicidal evaluation, GLXMAW; type: in vivo, (L.) Merr. cv Williams
How it was run: as §1

CYPSE Flatsedge [8] = test: Postemergence weed control, flooded paddy (Table IV); type: in vivo, Cyperus serotinus; parameters: scale not given here
How it was run: (§3)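 Weeds 3 to 5 cm tall and rice seedlings at the 1.5 to 2.5 leaf stage were flooded, water held 1.5 to 3 cm above soil. Compounds in 50/50 v/v aqueous/acetone went into the flood water at about 0.0313 to 0.500 kg/ha. Injury was rated visually three to four weeks later.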

[9] = system: Rice, Tebonnet, Oryza sativa; test: Postemergence herbicidal evaluation, ORYSAT; type: in vivo, (L.) Tebonnet
How it was run: as §1

[10] = system: Barnyardgrass, Echinochloa crus-galli; test: Postemergence herbicidal evaluation, ECHCG; type: in vivo, (L.) Beau
How it was run: as §1

CYPSE Flatsedge [11] = test: Preemergence weed control, flooded paddy (Table III); type: in vivo, Cyperus serotinus; parameters: scale not given here
How it was run: (§4)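 Seeds or propagules sown in silt loam under 1.5 to 3 cm standing flood water; compound in 50/50 aqueous/acetone pipetted into the water at about 0.0313 to 0.500 kg/ha active ingredient. Greenhouse-held; herbicidal effect rated on a scale 3-4 weeks after treatment.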

[12] = system: Velvetleaf, Abutilon theophrasti; test: Preemergence herbicidal evaluation, ABUTH; type: in vivo, Medic.; conditions: 0.2500 kg/ha
How it was run: as §2

MOOVA Monochoria [13] = test: Preemergence weed control, flooded paddy (Table III); type: in vivo, Monochoria vaginalis; parameters: scale not given here
How it was run: as §4

[14] = system: Morningglory Spp., Ipomoea Spp.; test: Preemergence herbicidal evaluation, IPOSS; type: in vivo; conditions: 0.2500 kg/ha
How it was run: as §2

[15] = system: SAGPY Arrowhead (Pygmaea); test: Postemergence weed control, flooded paddy (Table IV); type: in vivo, Sagittaria pygmaea; parameters: scale not given here
How it was run: as §3

MOOVA Monochoria [16] = test: as above; type: in vivo, Monochoria vaginalis; parameters: scale not given here
How it was run: as §3

CYPIR Rice Flatsedge = test: as above; type: in vivo, Cyperus iria; parameters: scale not given here
How it was run: as §3

[17] = system: Lambsquarters, Common, Chenopodium album; test: Postemergence herbicidal evaluation, CHEAL; type: in vivo, L.
How it was run: as §1

Galium, Galium aparine [18] = test: Preemergence herbicidal evaluation, GALAP; type: in vivo; conditions: 0.2500 kg/ha
How it was run: as §2

[19] = system: Barnyardgrass, Echinochloa crus-galli; test: Preemergence herbicidal evaluation, ECHCG; type: in vivo, (L.) Beau; conditions: 0.2500 kg/ha
How it was run: as §2

[20] = system: Foxtail, Green, Setaria viridis; test: Postemergence herbicidal evaluation, SETVI; type: in vivo, (L.) Beau
How it was run: as §1

[21] = system: Foxtail, Green, Setaria viridis; test: Preemergence herbicidal evaluation, SETVI; type: in vivo, (L.) Beau; conditions: 0.2500 kg/ha
How it was run: as §2

## COc1ccc(C)cc1-c1nsc2ccc(-n3c(=O)cc(C(F)(F)F)n(C)c3=O)cc12 [Compound 1, 3-[3-(6-Methoxy-m-tolyl)-1,2-benzisothiazol-5-yl]-1-methyl-6-(trifluoromethyl)-2,4(1H,3H)-pyrimidinedione]
[1]; 0.0630 kg/ha
  herbicide rating (0-9): 9.0
[1]; 0.2500 kg/ha
  herbicide rating (0-9): 9.0
[2]
  herbicide rating (0-9): 9.0
Galium, Galium aparine [3]; 0.0630 kg/ha
  herbicide rating (0-9): 9.0
Galium, Galium aparine [3]; 0.2500 kg/ha
  herbicide rating (0-9): 9.0
[4]
  herbicide rating (0-9): 9.0
Soybean, Glycine max
  herbicide rating (0-9): 9.0
[5]
  herbicide rating (0-9): 8.0
[6]
  herbicide rating (0-9): 9.0
[7]; 0.0630 kg/ha
  herbicide rating (0-9): 6.0
[7]; 0.2500 kg/ha
  herbicide rating (0-9): 7.0
CYPSE Flatsedge [8]; 0.1250 kg/ha
  herbicidal effect rating: 3.0
CYPSE Flatsedge [8]; 0.2500 kg/ha
  herbicidal effect rating: 5.5
CYPSE Flatsedge [8]; 0.5000 kg/ha
  herbicidal effect rating: 6.5
[9]; 0.0630 kg/ha
  herbicide rating (0-9): 4.3
[9]; 0.2500 kg/ha
  herbicide rating (0-9): 5.0
[10]; 0.0630 kg/ha
  herbicide rating (0-9): 7.0
[10]; 0.2500 kg/ha
  herbicide rating (0-9): 9.0
CYPSE Flatsedge [11]; 0.0313 kg/ha
  herbicidal effect rating: 1.3
CYPSE Flatsedge [11]; 0.0625 kg/ha
  herbicidal effect rating: 3.0
CYPSE Flatsedge [11]; 0.1250 kg/ha
  herbicidal effect rating: 6.0
CYPSE Flatsedge [11]; 0.2500 kg/ha
  herbicidal effect rating: 9.0
CYPSE Flatsedge [11]; 0.5000 kg/ha
  herbicidal effect rating: 8.0
[12]
  herbicide rating (0-9): 9.0
MOOVA Monochoria [13]; 0.0313 kg/ha
  herbicidal effect rating: 9.0
MOOVA Monochoria [13]; 0.0625 kg/ha
  herbicidal effect rating: 9.0
MOOVA Monochoria [13]; 0.1250 kg/ha
  herbicidal effect rating: 9.0
MOOVA Monochoria [13]; 0.2500 kg/ha
  herbicidal effect rating: 9.0
MOOVA Monochoria [13]; 0.5000 kg/ha
  herbicidal effect rating: 9.0
[14]
  herbicide rating (0-9): 4.0
[15]; 0.1250 kg/ha
  herbicidal effect rating: 0.0
[15]; 0.2500 kg/ha
  herbicidal effect rating: 1.0
[15]; 0.5000 kg/ha
  herbicidal effect rating: 3.0
MOOVA Monochoria [16]; 0.1250 kg/ha
  herbicidal effect rating: 4.5
MOOVA Monochoria [16]; 0.2500 kg/ha
  herbicidal effect rating: 5.5
MOOVA Monochoria [16]; 0.5000 kg/ha
  herbicidal effect rating: 6.5
CYPIR Rice Flatsedge; 0.1250 kg/ha
  herbicidal effect rating: 9.0
CYPIR Rice Flatsedge; 0.2500 kg/ha
  herbicidal effect rating: 9.0
CYPIR Rice Flatsedge; 0.5000 kg/ha
  herbicidal effect rating: 9.0
[17]; 0.0630 kg/ha
  herbicide rating (0-9): 9.0
[17]; 0.2500 kg/ha
  herbicide rating (0-9): 9.0
Galium, Galium aparine [18]
  herbicide rating (0-9): 9.0
[19]
  herbicide rating (0-9): 9.0
[20]; 0.0630 kg/ha
  herbicide rating (0-9): 9.0
[20]; 0.2500 kg/ha
  herbicide rating (0-9): 9.0
[21]
  herbicide rating (0-9): 9.0
